Laboratory results: PMC8304783, “Antiadhesive Properties of Imidazolium Ionic Liquids Based on (−)-Menthol Against Candida spp” (International Journal of Molecular Sciences, 2021)

Columns and labels:
Assay type in all cases: cell-based
C. albicans [1] = experiment: Calcofluor white staining (cell wall integrity); conditions: ILs 25 µM, 2 h, 37 °C
Experimental: (§1) Fungal adhesion to biomedical surfaces is strongly related to the structure of the cell wall, and the presence of adhesins (Als proteins) on the surface of the cell. In turn, the progression to biofilm formation is dependent on the ability of C. albicans to form hyphae. In conditions similar to those above (ILs conc. = 25 µM), we examined C. albicans cell wall integrity, its ability to form hyphae, and the level of ALS genes expression, encoding Als1 and Als5 adhesins (Figure 3). […] Despite some reduction, the result was not statistically significant (p = 0.12). On the other hand, after the treatment with IL 2a, the expression of ALS1 and ALS5 genes was reduced by 50 or 55%, respectively (Figure 3C). The results were statistically significant in both cases (p = 0.04 for either ALS gene). However, in case of compounds with alkyl substituents (1a and 1b), the reduction of gene expression was to a lesser degree. […] Despite observing a chain-length dependence, the results were not statistically significant (p = 0.07 for both ALS gene after treatment with 1b).
Calcofluor white was used to assess cell wall integrity in C. albicans, following our protocol. YPD-grown C. albicans cells were pelleted, washed with PBS and treated with ILs (conc. = 25 µM) for 2 h at 37 °C. Afterwards, the samples were washed with PBS, stained with calcofluor white (final conc. = 25 µM) for 5 min. Then, cell suspensions were washed with PBS, pelleted and observed under the Zeiss (Poznań, Poland) Axio Imager A2 microscope equipped with Zeiss Axiocam 503 mono microscope camera and the Zeiss HBO100 mercury lamp.

C. albicans [2] = experiment: Yeast-to-hyphae transition (FBS-induced hyphae formation); conditions: FBS-induced (10%), ILs 25 µM, 2 h, 37 °C; control 94 ± 0.6%
Experimental: as §1
Experiments were performed as described before, with modifications. YPD-grown C. albicans were pelleted, washed with fresh YPD medium and resuspended in YPD medium (OD600 = 0.4). The suspensions were treated with ILs (conc. = 25 µM) and FBS (final conc. = 10%) for 2 h at 37 °C. The samples were observed under the Zeiss Axio Imager A2 microscope equipped with Canon PowerShot G10 camera for assessment of cell morphology. For quantitative estimation, cells of each assay were counted in three independent repetitions determining the percentage of hyphae forming cells.

[3] = tested on: C. albicans strain SC5314; experiment: Biofilm formation on dentures (crystal violet); conditions: for C. albicans biofilm on PFM dental crowns (CV staining) / C. albicans biofilm on acrylic dental crowns (CV staining) / C. albicans biofilm on dental alloy substructures (CV staining): 72 h biofilm, then ILs 25 µM for 2 h; for Visual eradication of C. albicans biofilm formed on dentures: dentures of different materials taken together, ILs 25 µM, 2 h
Text: We evaluated the ability of ILs to eradicate C. albicans biofilm formation on a number of dentures, namely acrylic dental crowns, PFM dental crowns and dental alloy substructures (Figure 2). This approach has the following disadvantage: impossibility of reliable biofilm quantification. However, during in vivo Candida spp. infections and biofilm formation, the fungi attach themselves into porous structure of dentures, and thus we selected them for the studies over commonly used discs. Here, an IL concentration of 25 µM was selected for this investigation. In each condition, a C. albicans biofilm was formed after 72 h incubation, and the collected biomass was microscopically evaluated for the presence of hyphae, pseudohyphae and blastoconidia characteristic of C. albicans (Figure 2). Next, the materials were treated with ILs for 2 h and stained with crystal violet (CV). […] Microscopic observations of the stained biomass from dentures exposed to both 1a and 1b (Figure 2, white arrows) confirmed the presence of C. albicans hyphae and blastoconidia (data not shown).
(§2) To assess the influence of ILs on biofilm formation by C. albicans strain SC5314 on dentures, the following materials were used: acrylic dental crowns, porcelain-fused-to-metal (PFMs) dental crowns and dental alloy substructures. All dentures were kind gifts from Prof. M. Łukaszewicz (Wrocław, Poland). Prior to the experiments, the dentures were sterilized by 1 h incubation in 70% pure ethanol (EtOH) solution, washed with sterile water to remove EtOH residues and dried under aseptic conditions. The experiments were performed by aseptically placing dentures in YPD, supplemented with FBS, and inoculating them with YPD-grown C. albicans suspension (0.01% Vol/Vol). After 72 h of incubation at 37 °C, the dentures were treated for 2 h with the addition of ILs (conc. = 25 µM), washed with PBS and fixed with 0.1% CV solution for 10 min, then washed with PBS to remove the stain residue. The dentures were then dried and photographed. Microscopic preparations were made of biofilm samples which were imaged using the Zeiss Axio Imager A2 microscope equipped with Zeiss Axiocam 503 mono microscope camera.

[4] = tested on: C. albicans B4 and Gu5 isolates; experiment: Biofilm of clinical isolates on acrylic dental crowns (crystal violet); conditions: B4 and Gu5 (FLC-resistant); 72 h biofilm, then ILs 25 μM for 2 h
Experimental: as §2
Figure S1. Detachment of adherent C. albicans clinical isolates after 2 h incubation on polystyrene surfaces by ionic liquids (ILs) (means ± SD; n = 3). Results are presented as percentage of adherent cells relative to untreated controls (100% adhesion). Statistical analysis of detachment at each concentration was performed towards corresponding control experiments (isolates untreated by ILs=100% adhesion) (*, p < 0.05; **, p < 0.01 […]
We selected C. albicans B4 and Gu5 isolates for evaluating the ability of ILs to eradicate biofilm formation on acrylic dental crowns (Figure S2). Both the strains were chosen due to their FLC‐resistance status. An IL concentration of 25 μM was selected for this investigation. In each condition, a C. albicans biofilm was formed after 72 h incubation, and the collected biomass was microscopically evaluated for the presence of hyphae, pseudohyphae and blastoconidia characteristic of C. albicans (Figure S2). […]

Compound	Calcofluor white staining of chitin (cell wall integrity) (C. albicans [1])	Percentage of cells forming hyphae (C. albicans [2]) [%]	C. albicans biofilm on PFM dental crowns (CV staining) [3]	C. albicans biofilm on acrylic dental crowns (CV staining) [3]	C. albicans biofilm on dental alloy substructures (CV staining) [3]	Visual eradication of C. albicans biofilm formed on dentures [3]	Biofilm of clinical isolates on acrylic dental crowns (CV staining) [4]
CCCCCCCCCn1cc[n+](CO[C@@H]2C[C@H](C)CC[C@H]2C(C)C)c1 [1a, 1-[(1R,2S,5R)-(−)-menthoxymethyl]-3-nonylimidazolium chloride]	well-defined, intense chitin fluoresce with clearly visible bud scars, comparable with the control staining	< 1	residual CV staining was observed	residual CV staining was observed	residual CV staining was observed	partially	residual CV staining
CCCCCCCCCCn1cc[n+](CO[C@@H]2C[C@H](C)CC[C@H]2C(C)C)c1 [1b, 3-decyl-1-[(1R,2S,5R)-(−)-menthoxymethyl]imidazolium chloride]	well-defined, intense chitin fluoresce with clearly visible bud scars, comparable with the control staining	< 1	residual CV staining was observed	residual CV staining was observed	residual CV staining was observed	partially	residual CV staining
CCCCCCCCCOCn1cc[n+](CO[C@@H]2C[C@H](C)CC[C@H]2C(C)C)c1 [2a, 1-(1R,2S,5R)-(−)-menthoxymethyl-3-nonyloxymethylimidazolium chloride]	low fluorescence intensity and thinner calcofluor white-stained chitin layer surrounding cells than the controls	78.2 ± 17.2	did not fully protect	protected	protected	totally	prote ct ed
